Experimental data from ChEMBL document CHEMBL2417463, “Synthesis and identification of new flavonoids targeting liver X receptor β involved pathway as potential facilitators of Aβ clearance with reduced lipid accumulation” (J Med Chem, 2013).
Activity calls are given as the source filed them. The calls are words filed in the database; no cut-off is given here.

What was measured:
Type in all cases: cell-based
[1] = molecular target: T1, Oxysterols receptor LXR-beta (Homo sapiens) (UniProt P55055); assay: Agonist activity at human LXRbeta transfected in HEK293 cells at 0.1 uM after 24 hrs by luciferase reporter gene assay relative to vehicle-treated control
T1 sequence (whole entry): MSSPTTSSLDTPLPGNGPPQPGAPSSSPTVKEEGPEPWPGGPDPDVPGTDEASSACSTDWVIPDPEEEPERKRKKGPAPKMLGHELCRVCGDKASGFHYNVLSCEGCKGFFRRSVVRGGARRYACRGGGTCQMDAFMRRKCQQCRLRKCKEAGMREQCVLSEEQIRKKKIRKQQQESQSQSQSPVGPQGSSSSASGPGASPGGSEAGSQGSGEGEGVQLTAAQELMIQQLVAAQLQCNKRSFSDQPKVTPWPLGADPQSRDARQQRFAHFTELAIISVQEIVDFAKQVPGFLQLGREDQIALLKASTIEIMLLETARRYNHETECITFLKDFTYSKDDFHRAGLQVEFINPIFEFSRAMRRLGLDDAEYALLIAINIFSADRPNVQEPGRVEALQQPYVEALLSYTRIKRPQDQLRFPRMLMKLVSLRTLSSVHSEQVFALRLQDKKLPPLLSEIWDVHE

[2] = molecular target: T2, Oxysterols receptor LXR-alpha (Homo sapiens) (UniProt Q13133); assay: Agonist activity at human LXRalpha transfected in HEK293 cells at 1 uM after 24 hrs by luciferase reporter gene assay relative to vehicle-treated control
T2 sequence (whole entry): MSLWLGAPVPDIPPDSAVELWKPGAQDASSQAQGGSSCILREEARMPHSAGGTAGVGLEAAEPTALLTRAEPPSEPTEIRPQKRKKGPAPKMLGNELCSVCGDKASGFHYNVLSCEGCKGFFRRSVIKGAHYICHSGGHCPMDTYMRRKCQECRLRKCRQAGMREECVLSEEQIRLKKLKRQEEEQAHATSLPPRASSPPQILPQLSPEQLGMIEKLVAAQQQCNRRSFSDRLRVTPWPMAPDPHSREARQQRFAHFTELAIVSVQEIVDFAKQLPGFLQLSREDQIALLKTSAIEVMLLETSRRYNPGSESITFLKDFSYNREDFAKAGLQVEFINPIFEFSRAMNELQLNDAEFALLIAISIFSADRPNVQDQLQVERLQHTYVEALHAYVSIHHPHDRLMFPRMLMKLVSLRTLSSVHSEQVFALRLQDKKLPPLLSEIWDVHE

[3] = molecular target: T2, Oxysterols receptor LXR-alpha (Homo sapiens); assay: Agonist activity at human LXRalpha transfected in HEK293 cells at 0.1 uM after 24 hrs by luciferase reporter gene assay relative to vehicle-treated control
[4] = molecular target: T3, Oxysterols receptor LXR-beta (Mus musculus) (UniProt Q60644); assay: Agonist activity at LXRbeta in mouse RAW264.7 cells assessed as induction of ABCA1 promoter activation after 24 hrs by Dual-Glo luciferase reporter gene assay
T3 sequence (whole entry): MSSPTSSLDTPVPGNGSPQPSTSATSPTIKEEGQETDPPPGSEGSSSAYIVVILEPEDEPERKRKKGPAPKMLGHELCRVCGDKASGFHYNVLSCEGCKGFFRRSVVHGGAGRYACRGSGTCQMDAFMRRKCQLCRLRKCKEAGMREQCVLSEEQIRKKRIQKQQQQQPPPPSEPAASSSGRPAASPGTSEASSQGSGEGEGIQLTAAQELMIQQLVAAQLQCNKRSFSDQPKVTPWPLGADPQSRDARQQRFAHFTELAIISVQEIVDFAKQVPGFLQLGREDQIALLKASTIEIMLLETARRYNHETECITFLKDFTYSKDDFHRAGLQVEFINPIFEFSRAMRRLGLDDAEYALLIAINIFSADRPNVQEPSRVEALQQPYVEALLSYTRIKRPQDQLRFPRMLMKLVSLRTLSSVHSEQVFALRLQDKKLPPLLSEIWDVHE

[5] = molecular target: T3, Oxysterols receptor LXR-beta (Mus musculus); assay: Agonist activity at LXRbeta in mouse RAW264.7 cells assessed as induction of ABCA1 promoter activation at 1 uM after 24 hrs by Dual-Glo luciferase reporter gene assay relative to vehicle-treated control
HEK293 = assay: Cytotoxicity against HEK293 cells assessed as inhibition of cell viability at 50 uM after 48 hrs by SRB assay relative to vehicle-treated control; settings: human, hek293, 48 h
HepG2 [6] = assay: (§1) Cytotoxicity against human HepG2 cells assessed as inhibition of cell viability at 50 uM after 48 hrs by SRB assay relative to vehicle-treated control; settings: hepg2, 48 h, 50 µM
BV-2 = assay: Cytotoxicity against mouse BV2 cells assessed as inhibition of cell viability at 50 uM after 48 hrs by SRB assay relative to vehicle-treated control; settings: bv-2, 48 h
RAW264.7 = assay: Cytotoxicity against mouse RAW264.7 cells assessed as inhibition of cell viability at 50 uM after 48 hrs by SRB assay relative to vehicle-treated control; settings: raw264.7, 48 h
HepG2 [7] = assay: Induction of cytoplasmic lipid accumulation in human HepG2 cells at 10 uM after 4 days by oil red O staining-based light microscopic analysis; settings: hepg2, 96 h
HepG2 [8] = assay: Induction of intracellular triglyceride accumulation in human HepG2 cells at 10 uM after 4 days relative to vehicle-treated control; settings: hepg2, 96 h
HepG2 [9] = assay: Induction of intracellular triglyceride accumulation in human HepG2 cells at 1 uM after 4 days relative to vehicle-treated control; settings: hepg2, 96 h
[10] = molecular target: T3, Oxysterols receptor LXR-beta (Mus musculus); assay: Agonist activity at LXRbeta in mouse BV2 cells assessed as degradation of intracellular soluble amyloid beta42 at 0.1 uM preincubated for 18 hrs followed by soluble amyloid beta42 addition measured after 24 hrs by ELISA relative to vehicle-treated control; settings: BV-2
[11] = molecular target: T3, Oxysterols receptor LXR-beta (Mus musculus); assay: Agonist activity at LXRbeta in mouse BV2 cells assessed as degradation of intracellular amyloid beta42 preincubated for 18 hrs followed by soluble amyloid beta42 addition measured after 24 hrs by ELISA; settings: BV-2
[12] = molecular target: T3, Oxysterols receptor LXR-beta (Mus musculus); assay: Agonist activity at LXRbeta in mouse BV2 cells assessed as degradation of intracellular soluble amyloid beta42 at 1 uM preincubated for 18 hrs followed by soluble amyloid beta42 addition measured after 24 hrs by ELISA relative to vehicle-treated control; settings: BV-2
[13] = molecular target: T3, Oxysterols receptor LXR-beta (Mus musculus); assay: Agonist activity at LXRbeta in mouse BV2 cells assessed as upregulation of apoE protein expression at 10 uM after 48 hrs by Western blot analysis relative to vehicle-treated control; settings: BV-2
[14] = molecular target: T3, Oxysterols receptor LXR-beta (Mus musculus); assay: Agonist activity at LXRbeta in mouse BV2 cells assessed as upregulation of apoE protein expression at 1 uM after 48 hrs by Western blot analysis relative to vehicle-treated control; settings: BV-2
[15] = molecular target: T3, Oxysterols receptor LXR-beta (Mus musculus); assay: Agonist activity at LXRbeta in mouse BV2 cells assessed as upregulation of apoE protein expression at 0.1 uM after 48 hrs by Western blot analysis relative to vehicle-treated control; settings: BV-2
[16] = molecular target: T3, Oxysterols receptor LXR-beta (Mus musculus); assay: Agonist activity at LXRbeta in mouse BV2 cells assessed as upregulation of ABCA1 protein expression after 12 to 48 hrs by Western blot analysis; settings: BV-2
[17] = molecular target: T3, Oxysterols receptor LXR-beta (Mus musculus); assay: Agonist activity at LXRbeta in mouse BV2 cells assessed as upregulation of ABCA1 protein expression at 1 uM after 12 to 48 hrs by Western blot analysis; settings: BV-2
[18] = molecular target: T3, Oxysterols receptor LXR-beta (Mus musculus); assay: Agonist activity at LXRbeta in mouse RAW264.7 cells assessed as upregulation of ABCA1 protein expression after 18 to 48 hrs by Western blot analysis
[19] = molecular target: T3, Oxysterols receptor LXR-beta (Mus musculus); assay: Agonist activity at LXRbeta in mouse RAW264.7 cells assessed as upregulation of ABCA1 protein expression at 1 uM after 18 to 48 hrs by Western blot analysis
[20] = molecular target: T1, Oxysterols receptor LXR-beta (Homo sapiens); assay: Agonist activity at human LXRbeta transfected in HEK293 cells at 1 uM after 24 hrs by luciferase reporter gene assay relative to vehicle-treated control
[21] = as §1; settings: HepG2 cells, read-out: Activity
HepG2 [22] = assay: Induction of cytoplasmic lipid accumulation in human HepG2 cells at 1 uM after 4 days by oil red O staining-based light microscopic analysis; settings: hepg2, 96 h

Row | fold change (FC) [1] | fold change (FC) [2] | fold change (FC) [3] | fold change (FC) [5] | Activity (HepG2 [8]) | Activity (HepG2 [9]) | Activity [12] | fold change (FC) [14] | fold change (FC) [15] | Activity [16] | Activity [17] | Activity [18] | Activity [19] | fold change (FC) [20] | Structure (SMILES) | Activity (HEK293) | Activity (BV-2) | Activity (RAW264.7) | Activity (HepG2 [7]) | Activity (HepG2 [22]) | further results
1 | 1.38 | 1.11 | 1.06 | 2.64 | 19% | -21% | 37% | 1.4 | 1.4 | Dose-dependent effect | Active | Dose-dependent effect | Active | 2.22 | Nc1ccc(C(=O)/C=C/c2ccc3ccccc3c2)c(O)c1 | Non-toxic | Non-toxic | Non-toxic | Toxic | – | Activity [4]: Dose-dependent effect; Activity (HepG2 [6]): Non-toxic; Activity [10]: 44%; Activity [11]: Dose-dependent effect; fold change (FC) [13]: 1.7
2 | 1.19 | 1.02 | 1.32 | 1.9 | 18% | -6% | 38% | 1.4 | 1.1 | Dose-dependent effect | Active | Dose-dependent effect | Active | 1.76 | O=c1cc(-c2c[nH]c3ccccc23)oc2cc(O)ccc12 | Non-toxic | Non-toxic | Non-toxic | Toxic | – | inhibition at 48 h, 50 µM [21]: 45%
3 | – | – | – | – | – | 175% | – | – | – | – | – | – | – | – | O=S(=O)(c1ccccc1)N(CC(F)(F)F)c1ccc(C(O)(C(F)(F)F)C(F)(F)F)cc1 [T091317] | – | – | – | – | Toxic | –
4 | 1.42 | 2.38 | 1.53 | 1.83 | 242% | 43% | 55% | – | – | – | – | – | – | 1.86 | O=C(O)Cc1cccc(OCCCN(Cc2cccc(C(F)(F)F)c2Cl)CC(c2ccccc2)c2ccccc2)c1 | – | – | – | – | Toxic | –
